Measurements taken from patent publication US10770169B2, “Method of providing a treatment to a subject based on a dynamic pathway map” (THE REGENTS OF THE UNIVERSITY OF CALIFORNIA, priority 2010, dated 2020).
Read-outs that look alike come from different tables or passages of the source.

Test system: panel of 55 breast cancer cell lines
Experiment: Cell growth inhibition assay (Cell Titer Glo, 72 h, 9 doses; GI50, TGI, LC50)
Assay type: cell-based, human
[1] = Homo sapiens, AU565, cell line AU565, read-out: GI50 (converted)
[2] = Homo sapiens, BT-474, cell line BT474, read-out: GI50 (converted)
[3] = Homo sapiens, BT-483, cell line BT483, read-out: GI50 (converted)
[4] = Homo sapiens, CAMA-1, CAMA1 cell line, censored GI50 values, read-out: GI50 (converted)
[5] = Homo sapiens, CAMA-1, cell line CAMA1, read-out: GI50 (converted)
[6] = Homo sapiens, HCC38, cell line HCC38, read-out: GI50 (converted)
[7] = Homo sapiens, HCC70, cell line HCC70, read-out: GI50 (converted)
[8] = Homo sapiens, HCC202, cell line HCC202, read-out: GI50 (converted)
[9] = Homo sapiens, HCC1143, cell line HCC1143, read-out: GI50 (converted)
[10] = Homo sapiens, HCC1187, cell line HCC1187, read-out: GI50 (converted)
[11] = Homo sapiens, HCC1419, cell line HCC1419, read-out: GI50 (converted)
[12] = Homo sapiens, HCC1428, cell line HCC1428, read-out: GI50 (converted)
[13] = Homo sapiens, HCC1500, HCC1500 cell line, censored GI50 values, read-out: GI50 (converted)
[14] = Homo sapiens, HCC1500, cell line HCC1500, read-out: GI50 (converted)
[15] = Homo sapiens, HCC1806, HCC1806 cell line, censored GI50 values, read-out: GI50 (converted)
[16] = Homo sapiens, HCC1806, cell line HCC1806, read-out: GI50 (converted)
[17] = Homo sapiens, HCC1954, HCC1954 cell line, censored GI50 values, read-out: GI50 (converted)
[18] = Homo sapiens, HCC1954, cell line HCC1954, read-out: GI50 (converted)
[19] = Homo sapiens, MCF7, cell line MCF7, read-out: GI50 (converted)
[20] = Homo sapiens, MDA-MB-361, cell line MDAMB361, read-out: GI50 (converted)
[21] = Homo sapiens, MDA-MB-436, cell line MDAMB436, read-out: GI50 (converted)
[22] = Homo sapiens, MDA-MB-453, cell line MDAMB453, read-out: GI50 (converted)
[23] = Homo sapiens, MDA-MB-468, cell line MDAMB468, read-out: GI50 (converted)
[24] = Homo sapiens, SK-BR-3, cell line SKBR3, read-out: GI50 (converted)
[25] = Homo sapiens, SUM52PE, cell line SUM52PE, read-out: GI50 (converted)
[26] = Homo sapiens, SUM185PE, cell line SUM185PE, read-out: GI50 (converted)
[27] = Homo sapiens, UACC-812, cell line UACC812, read-out: GI50 (converted)
[28] = Homo sapiens, ZR-75-1, cell line ZR751, read-out: GI50 (converted)
[29] = Homo sapiens, cell line HCC2185, read-out: GI50 (converted)
[30] = Homo sapiens, cell line HCC3153, read-out: GI50 (converted)
[31] = Homo sapiens, cell line LY2, read-out: GI50 (converted)
[32] = Homo sapiens, cell line MDAMB134V, read-out: GI50 (converted)
[33] = Homo sapiens, cell line SUM1315MO, read-out: GI50 (converted)

COc1cccc(-c2cc(=O)c3ccccc3o2)c1N [PD 98059]
GI50 (AU565 cell line, censored GI50 values, value is the negative log10 of mol/L): 5.12 | GI50 (CAMA1 cell line, censored GI50 values, value is the negative log10 of mol/L): 4.65 | GI50 (HCC1187 cell line, censored GI50 values, value is the negative log10 of mol/L): 5.56 | GI50 (HCC1937 cell line, censored GI50 values, value is the negative log10 of mol/L): 4.50 | GI50 (cell line 600MPE, value is the negative log10 of mol/L): 4.30 | GI50 (cell line AU565, value is the negative log10 of mol/L): 5.12 | GI50 (cell line BT20, value is the negative log10 of mol/L): 4.04 | GI50 (cell line BT474, value is the negative log10 of mol/L): 4.00 | GI50 (cell line BT483, value is the negative log10 of mol/L): 4.12 | GI50 (cell line CAMA1, value is the negative log10 of mol/L): 4.65 | GI50 (cell line HCC70, value is the negative log10 of mol/L): 4.30 | GI50 (cell line HCC1143, value is the negative log10 of mol/L): 4.00 | GI50 (cell line HCC1187, value is the negative log10 of mol/L): 5.56 | GI50 (cell line HCC1395, value is the negative log10 of mol/L): 4.00 | GI50 (cell line HCC1419, value is the negative log10 of mol/L): 4.20 | GI50 (cell line HCC1428, value is the negative log10 of mol/L): 4.12 | GI50 (cell line HCC1806, value is the negative log10 of mol/L): 4.30 | GI50 (cell line HCC1937, value is the negative log10 of mol/L): 4.50 | GI50 (cell line HCC1954, value is the negative log10 of mol/L): 4.30 | GI50 (cell line HCC2185, value is the negative log10 of mol/L): 4.55 | GI50 (cell line MDAMB134V, value is the negative log10 of mol/L): 4.12 | GI50 (cell line MDAMB175V, value is the negative log10 of mol/L): 4.24 | GI50 (cell line MDAMB361, value is the negative log10 of mol/L): 4.30 | GI50 (cell line MDAMB468, value is the negative log10 of mol/L): 4.32 | GI50 (cell line SKBR3, value is the negative log10 of mol/L): 4.73 | GI50 (cell line SUM52PE, value is the negative log10 of mol/L): 4.92 | GI50 (cell line SUM149PT, value is the negative log10 of mol/L): 4.44 | GI50 (cell line SUM159PT, value is the negative log10 of mol/L): 4.30 | GI50 (cell line SUM185PE, value is the negative log10 of mol/L): 4.88 | GI50 (cell line SUM225CWN, value is the negative log10 of mol/L): 4.42 | GI50 (cell line SUM1315MO, value is the negative log10 of mol/L): 4.30 | GI50 (cell line T47D, value is the negative log10 of mol/L): 4.30 | GI50 (cell line UACC812, value is the negative log10 of mol/L): 4.27 | GI50 (cell line ZR75B, value is the negative log10 of mol/L): 4.00 | GI50 (cell line ZR751, value is the negative log10 of mol/L): 4.32

O=C(Nc1cc(Cl)cc2c1[nH]c1cnccc12)c1cccnc1 [PS1145]
variability in cell line response (across the cell line panel): variability in cell line response was minimal

CC(=O)O[C@H]1C(=O)[C@@]2(C)[C@H]([C@H](OC(=O)c3ccccc3)[C@]3(O)C[C@H](OC(=O)[C@H](O)[C@@H](NC(=O)c4ccccc4)c4ccccc4)C(C)=C1C3(C)C)[C@]1(OC(C)=O)CO[C@@H]1C[C@@H]2O [Paclitaxel]
GI50 (Homo sapiens, 600MPE cell line, censored GI50 values, read-out: GI50 (converted)): 0.0661 µM | GI50 (Homo sapiens, AU565, AU565 cell line, censored GI50 values, read-out: GI50 (converted)): 0.00813 µM | GI50 [1]: 0.00813 µM | GI50 (Homo sapiens, BT-474, BT474 cell line, censored GI50 values, read-out: GI50 (converted)): 0.0102 µM | GI50 [2]: 0.0102 µM | GI50 (Homo sapiens, BT-483, BT483 cell line, censored GI50 values, read-out: GI50 (converted)): 0.0347 µM | GI50 [3]: 0.0347 µM | GI50 [4]: 0.0112 µM | GI50 [5]: 0.0112 µM | GI50 [6]: 0.00741 µM | GI50 [7]: 0.00813 µM | GI50 [8]: 0.00794 µM | GI50 (Homo sapiens, HCC1143, HCC1143 cell line, censored GI50 values, read-out: GI50 (converted)): 0.017 µM | GI50 [9]: 0.017 µM | GI50 (Homo sapiens, HCC1187, HCC1187 cell line, censored GI50 values, read-out: GI50 (converted)): 0.00891 µM | GI50 [10]: 0.00891 µM | GI50 (Homo sapiens, HCC1395, HCC1395 cell line, censored GI50 values, read-out: GI50 (converted)): 0.0158 µM | GI50 (Homo sapiens, HCC1395, cell line HCC1395, read-out: GI50 (converted)): 0.0158 µM | GI50 (Homo sapiens, HCC1419, HCC1419 cell line, censored GI50 values, read-out: GI50 (converted)): 0.692 µM | GI50 [11]: 0.692 µM | GI50 (Homo sapiens, HCC1428, HCC1428 cell line, censored GI50 values, read-out: GI50 (converted)): 16.6 µM | GI50 [12]: 16.6 µM | GI50 [13]: 0.00794 µM | GI50 [14]: 0.00794 µM | GI50 [15]: 0.00871 µM | GI50 [16]: 0.00871 µM | GI50 [17]: 0.00708 µM | GI50 [18]: 0.00708 µM | GI50 [19]: 0.0162 µM | GI50 (Homo sapiens, MDA-MB-231, cell line MDAMB231, read-out: GI50 (converted)): 0.00525 µM | GI50 [20]: 0.0132 µM | GI50 (Homo sapiens, MDA-MB-415, cell line MDAMB415, read-out: GI50 (converted)): 0.00525 µM | GI50 [21]: 0.0427 µM | GI50 [22]: 0.0102 µM | GI50 [23]: 0.00871 µM | GI50 [24]: 0.0112 µM | GI50 [25]: 0.0049 µM | GI50 (Homo sapiens, SUM149PT, cell line SUM149PT, read-out: GI50 (converted)): 0.00933 µM | GI50 [26]: 0.024 µM | GI50 (Homo sapiens, SUM-159-PT, cell line SUM159PT, read-out: GI50 (converted)): 0.0151 µM | GI50 [27]: 0.00912 µM | GI50 (Homo sapiens, UACC-893, cell line UACC893, read-out: GI50 (converted)): 0.0117 µM | GI50 [28]: 0.0275 µM | GI50 (Homo sapiens, ZR-75-30, cell line ZR7530, read-out: GI50 (converted)): 0.0219 µM | GI50 (Homo sapiens, ZR-75B, cell line ZR75B, read-out: GI50 (converted)): 0.00794 µM | GI50 (Homo sapiens, cell line 600MPE, read-out: GI50 (converted)): 0.0661 µM | GI50 [29]: 0.00724 µM | GI50 [30]: 0.02 µM | GI50 [31]: 0.0105 µM | GI50 [32]: 0.01 µM | GI50 (Homo sapiens, cell line MDAMB175V, read-out: GI50 (converted)): 0.0195 µM | GI50 [33]: 0.00617 µM

Nc1nc2[nH]cc(CCc3ccc(C(=O)N[C@@H](CCC(=O)O)C(=O)O)cc3)c2c(=O)[nH]1 [Pemetrexed]
GI50 [1]: 2950 µM | GI50 [2]: 2950 µM | GI50 [3]: 2950 µM | GI50 (Homo sapiens, BT-549, cell line BT549, read-out: GI50 (converted)): 2950 µM | GI50 [4]: 1480 µM | GI50 [5]: 1480 µM | GI50 [6]: 2950 µM | GI50 [7]: 2950 µM | GI50 (Homo sapiens, HCC202, HCC202 cell line, censored GI50 values, read-out: GI50 (converted)): 0.0209 µM | GI50 [8]: 0.0209 µM | GI50 [9]: 2950 µM | GI50 [10]: 2950 µM | GI50 [11]: 2950 µM | GI50 [12]: 2950 µM | GI50 [13]: 0.501 µM | GI50 [14]: 0.501 µM | GI50 [15]: 1480 µM | GI50 [16]: 1480 µM | GI50 (Homo sapiens, HCC1937, HCC1937 cell line, censored GI50 values, read-out: GI50 (converted)): 155 µM | GI50 (Homo sapiens, HCC1937, cell line HCC1937, read-out: GI50 (converted)): 155 µM | GI50 [17]: 0.214 µM | GI50 [18]: 0.214 µM | GI50 (Homo sapiens, LY2 cell line, censored GI50 values, read-out: GI50 (converted)): 0.468 µM | GI50 [19]: 2950 µM | GI50 (Homo sapiens, MDA-MB-157, cell line MDAMB157, read-out: GI50 (converted)): 2950 µM | GI50 (Homo sapiens, MDA-MB-361, MDAMB361 cell line, censored GI50 values, read-out: GI50 (converted)): 0.49 µM | GI50 [20]: 0.49 µM | GI50 [21]: 2950 µM | GI50 (Homo sapiens, MDA-MB-453, MDAMB453 cell line, censored GI50 values, read-out: GI50 (converted)): 33.9 µM | GI50 [22]: 33.9 µM | GI50 (Homo sapiens, MDA-MB-468, MDAMB468 cell line, censored GI50 values, read-out: GI50 (converted)): 1480 µM | GI50 [23]: 1480 µM | GI50 (Homo sapiens, SK-BR-3, SKBR3 cell line, censored GI50 values, read-out: GI50 (converted)): 1480 µM | GI50 [24]: 1480 µM | GI50 [25]: 2950 µM | GI50 [26]: 2950 µM | GI50 (Homo sapiens, T47D, cell line T47D, read-out: GI50 (converted)): 2950 µM | GI50 [27]: 2950 µM | GI50 (Homo sapiens, ZR-75-1, ZR751 cell line, censored GI50 values, read-out: GI50 (converted)): 204 µM | GI50 [28]: 204 µM | GI50 [29]: 2950 µM | GI50 [30]: 2950 µM | GI50 [31]: 0.468 µM | GI50 [32]: 2950 µM | GI50 [33]: 2950 µM
